Assay results published in patent US20140187556A1, “ANTI-AMYLOID COMPOUNDS AND METHODS” (Treventis Corporation, priority 2011, published 2014).

How the values were obtained:
Aβ40 = molecular target: T1, Aβ40 (Homo sapiens, UniProt P05067); test: Thioflavin T (ThT) Aβ aggregation assay; type: biochemical; conditions: 20 μM Aβ40, 37 degrees C
T1 construct: pre-treated Aβ40 (40 μM in 20 mM Tris, pH 7.4)
Procedure: Aβ40 (1.0 mg) was pre-treated in a 1.5 mL microfuge tube with HFIP (1 mL) and sonicated for 20 min to disassemble any pre-formed Aβ aggregates. The HFIP was removed with a stream of argon and the Aβ dissolved in Tris base (5.8 mL, 20 mM, pH ˜10). The pH was adjusted to 7.4 with concentrated HCl (−10 μL) and the solution filtered using a syringe filter (0.2 μm) before being used.
The kinetic ThT assay for Aβ aggregation is similar to that of Chalifour et al (Chalifour et al, 2003, J. Biol. Chem. 278:34874-81). Briefly, pre-treated Aβ40 (40 μM in 20 mM Tris, pH 7.4), was diluted with an equal volume of 8 μM ThT in Tris (20 mM, pH 7.4, 300 mM NaCl). Aliquots of Aβ/ThT (200 μL) were added to wells of a black polystyrene 96-well plate, followed by 2 μL of a compound in DMSO (variable concentration), or DMSO alone (controls). Incubations were performed in triplicate and were taken to contain 20 μM Aβ, various concentration of compound in 20 mM Tris, pH 7.4, 150 mM NaCl, 1% DMSO. Plates were covered with clear polystyrene lids and incubated at 37 degrees C. in a Tecan Genios microplate reader. Fluorescence readings (λex=450 nm, λem=480 nm) were taken every 15 min., after first shaking at high intensity for 15 s and allowing to settle for 10 s before each reading. Active compounds attenuated the increase in fluorescence over time that occurred in controls.

Tau441 = Tau441 (Homo sapiens, UniProt P10636); test: Thioflavin S (ThS) tau aggregation assay; type: biochemical; conditions: FIG. 1; for inhibition at 20 µM: 20 μM compound; for IC50: read-out: tau aggregation IC50 (suggested by inhibition at 20 μM)
Tau441, sequence (P10636 1-441 isoform P10636-8): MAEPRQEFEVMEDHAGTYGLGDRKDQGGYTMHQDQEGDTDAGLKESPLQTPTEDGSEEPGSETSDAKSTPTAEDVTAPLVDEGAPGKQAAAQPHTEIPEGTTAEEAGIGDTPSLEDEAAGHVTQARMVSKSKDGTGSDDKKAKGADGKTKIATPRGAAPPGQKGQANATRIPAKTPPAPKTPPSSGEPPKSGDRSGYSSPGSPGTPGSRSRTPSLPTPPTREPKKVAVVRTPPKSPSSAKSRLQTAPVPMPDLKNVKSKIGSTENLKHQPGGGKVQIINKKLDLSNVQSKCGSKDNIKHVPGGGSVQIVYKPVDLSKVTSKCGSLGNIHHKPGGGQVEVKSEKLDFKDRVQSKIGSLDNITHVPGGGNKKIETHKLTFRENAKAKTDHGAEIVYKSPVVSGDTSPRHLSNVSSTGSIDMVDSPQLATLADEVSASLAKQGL
Procedure: Analogous to the method of Example 1, the ability of compounds to inhibit the aggregation of tau was performed by substituting […] with tau and Thioflavin T with Thioflavin S.

[1] = Metabolic stability in mouse liver microsomes; type: in vitro ADME; conditions: 1 μM compound, 0.5 mg/mL microsomal protein, 1 mM NADPH
Procedure: This assay is used to determine the percent remaining and intrinsic clearance of a test compound incubated with pooled mouse liver microsomes in the presence of NADPH. Further details on this method may be found in Jeffrey P, et al., Utility of metabolic stability screening: comparison of in vitro and in vivo clearance. enobiotica. 2001 August-September; 31(8-9):591-8 and Lin J H, et al., Role of pharmacokinetics and metabolism in drug discovery and development. Pharmacol Rev. 1997; 49(4):403-49; each of which is hereby incorporated by reference. Test compound was formulated in 300 μL of DMSO at 10 mM and was diluted to 1 μM with final concentration of organic solvent <0.25% for the experiment. Pooled liver microsomes were prepared from male mice, with 1 mM NADPH. Test compound was incubated at 37 degrees Celsius in buffer containing 0.5 mg/mL microsomal protein; the reaction was initiated by adding cofactors and sampled at 0, 10, 20, 30, and 60 minutes. A positive control (5 μM testosterone) was incubated and initiated in parallel for quality control. Samples were analyzed using an LTQ-Orbitrap XL mass spectrometer; HRMS was used to determine the peak area response ratio (peak area corresponding to test compound or control divided by that of an analytical internal standard) without running a standard curve.
Results were reported for selected compounds in the table of Example 1, as % test compound remaining after 60 minutes. Compounds which have less than about 5% remaining are not considered to be metabolically stable in mouse liver microsomes, while compounds with more than about 5% remaining are considered to be metabolically stable in mouse liver microsomes.

[2] = Blood-brain barrier penetration potential using MDR1-MDCK cell monolayers; type: in vitro ADME; conditions: dog; for Papp A→B at 120 min, 5 µM: MDCK-MDR1, apical dosing, pH 7.4, read-out: Papp A-B × 10^−6 cm/s; for Papp B→A at 120 min, 5 µM: MDCK-MDR1, basolateral dosing, pH 7.4, read-out: Papp B-A × 10^−6 cm/s; for efflux ratio at 120 min, 5 µM: MDCK-MDR1, pH 7.4, read-out: Efflux ratio (Papp B-A)/(Papp A-B)
From the text: (§1) This assay is used to determine the blood-brain barrier (BBB) penetration potential of a test compound using MDR1-MDCK cell monolayers. Further details on this method may be found in Taub M E, et al., Functional assessment of multiple Pglycoprotein (P-gp) probe substrates: Influence of cell line and modulator concentration on P-gp activity. Drug Metab Dispos. 2005 November; 33(11): 1679-87 and Wang Q, et al., Evaluation of the MDR-MDCK cell line as a permeability screen for the blood-brain barrier. Int J. Pharm. 2005 Jan. 20; 288(2):349-59; each of which is hereby incorporated by reference. Test compound was formulated in 300 μL of DMSO at 10 mM and diluted to 5 μM in HBSSg with maximum DMSO concentration not greater than 1%. Confluent monolayers of MDR1-MDCK cells, 7 to 11 days old, were used. A receiver well, having apical and basolateral sides at pH 7.4, was used with 1% BSA in modified Hanks buffer (HBSSg). Two monolayers were dosed with test compound in each direction (N=2). Apical side dosing was used for A-B assessment and basolateral side was used for B-A assessment; taken together, this information provides a bidirectional permeability potential. Apical and basolateral sides were sampled at 120 minutes and concentrations of test compound were determined using an LC-MS/MS method with a minimum 4 point calibration curve. Apparent permeability (Papp) in both directions (A-B and B-A) was calculated, as was the efflux ratio (Papp B-A)/(Papp A-B).

alpha-synuclein = alpha-synuclein (Homo sapiens, UniProt P37840); test: alpha-synuclein aggregation assay (ThT, analogous to Example 1); type: biochemical; conditions: 10 μM compound
Procedure: Analogous to the method of Example 1, the ability of compounds to inhibit the aggregation of alpha-synuclein was performed by substituting Aβ with alpha-synuclein.

[3] = tested on: MDR1-MDCK cell monolayers; test: Blood-brain barrier penetration potential using MDR1-MDCK cell monolayers; type: in vitro ADME; conditions: 5 μM, 120 min
From the text: as §1

[4] = In vivo brain/plasma ratio determination in CD-1 mice; conditions: for Mean brain/plasma ratio: 2 hours; for maximum brain/plasma ratio: day 5, once daily i.p. dosing
Procedure: Five groups of CD-1 mice (both sexes; individual weights 20 to 40 g) were dosed intraperitoneally with different doses of TRV 1067 (0, 3, 10, 30, and 100 mg/kg). DMSO (100%) was used as a vehicle. Animals had ad libitum access to rodent chow. Some animals were euthanized 2 hours after dosing on Day 1 and brains were harvested. Blood (0.15 mL) was collected 15 minutes after dosing and at sacrifice. The remaining animals were dosed once daily for 5 consecutive days. Blood samples were collected 15 minutes after dosing on Day 1. On Day 5, blood samples were collected 15 minutes and 2 hours after dosing and brains were harvested.
Standards were prepared in CD-1 mouse plasma containing sodium heparin as an anticoagulant and CD-1 mouse brain homogenate. An eight-point calibration curve was prepared at concentrations of 1000, 500, 100, 50, 10, 5, 1, and 0.5 ng/mL by serial dilution. Standard samples were treated identically to the study samples. Brain samples were homogenized with a Virsonic 100 ultrasonic homogenizer. Each brain sample was first weighed, and then an appropriate volume of 20:80 methanol:water was added to make a 4 mL/1 g sample. Samples were then homogenized on ice, and stored frozen until analysis. Plasma and brain homogenate samples were extracted via acetonitrile precipitation on a Tomtec Quadra 96-Model 320 liquid handling system in a 96-well plate format. A Perkin Elmer series 200 micropumps and LEAP Autosampler high-performance liquid chromatograph (HPLC) was used with a 0.2% formic acid/water/acetonitrile solvent system for separation purposes. The compound was quantitated using a PE Sciex API3000 mass spectrometer connected to the HPLC; negative polarity was used, with TRV 1067 analyzed using ion settings of 347.1 mass/charge ratio for the precursor and 212.1 for the product ions, respectively. Warfarin was used in negative polarity (307.1 precursor, 250.0 product) as an internal standard.

T1 sequence (P05067 672-711 limits assumed): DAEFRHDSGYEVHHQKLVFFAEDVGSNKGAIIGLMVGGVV

Row | Compound | IC50 (Aβ40) [µM] | inhibition at 20 µM (Tau441) [%] | IC50 (Tau441) [µM] | Stability in mouse liver microsomes (% test compound remaining after 60 min) [1] [%] | Papp A→B at 120 min, 5 µM [2] [×10⁻⁶ cm/s] | Papp B→A at 120 min, 5 µM [2] [×10⁻⁶ cm/s] | efflux ratio at 120 min, 5 µM [2] | also measured
1 | O=C(c1ccccc1)N1CCN(c2ccc(C(F)(F)F)c(N3CCCC3)c2)CC1 [TRV 1158, phenyl(4-(3-(pyrrolidin-1-yl)-4-(trifluoromethyl)phenyl)piperazin-1-yl)methanone] | 42.02 ± 0.12 | ~20 | > 20 | – | – | – | – | –
2 | O=C(c1ccccc1)N1CCN(c2ccc(F)c(Nc3ccccc3)c2)CC1 [TRV 1095, (4-(4-fluoro-3-(phenylamino)phenyl)piperazin-1-yl)(phenyl)methanone] | 15.9 ± 7.8 | ~20 | > 20 | <1.0 | – | – | – | –
3 | O=C(O)c1cccc(-c2ccc([N+](=O)[O-])c(NCc3ccccc3)c2)c1 [TRV 1067, 3′-(benzylamino)-4′-nitrophenyl-3-carboxylic acid] | – | – | – | – | – | – | – | Efflux ratio (Papp B-A)/(Papp A-B) [3]: 1.8; Papp A-B × 10^−6 cm/s ([3]; apical dosing, pH 7.4): 42.1 10^−6 cm/s; Papp B-A × 10^−6 cm/s ([3]; basolateral dosing, pH 7.4): 74.9 10^−6 cm/s; blood-brain barrier crossing in vivo ([4]; CD-1 mice, 3-100 mg/kg i.p.): did not appreciably cross the blood-brain barrier; Mean brain/plasma ratio ([4]; female CD-1 mice, Day 1, 3 mg/kg intraperitoneally): too low to determine; Mean brain/plasma ratio ([4]; female CD-1 mice, Day 1, 100 mg/kg intraperitoneally): 0.051; maximum brain/plasma ratio ([4]; female CD-1 mice): 0.067; Mean brain/plasma ratio ([4]; male CD-1 mice, Day 1, 3 mg/kg intraperitoneally): too low to determine; Mean brain/plasma ratio ([4]; male CD-1 mice, Day 1, 100 mg/kg intraperitoneally): 0.168; maximum brain/plasma ratio ([4]; male CD-1 mice): 0.256

Continued, in another order:

Row | IC50 (Aβ40) [µM] | inhibition at 20 µM (Tau441) [%] | IC50 (Tau441) [µM] | Stability in mouse liver microsomes (% test compound remaining after 60 min) [1] [%] | Papp A→B at 120 min, 5 µM [2] [×10⁻⁶ cm/s] | Papp B→A at 120 min, 5 µM [2] [×10⁻⁶ cm/s] | efflux ratio at 120 min, 5 µM [2] | Compound | also measured
4 | 1.1 ± 0.33 | – | – | 41 | 34.1 | 47.8 | 1.4 | O=[N+]([O-])c1ccc(-c2ccc(-c3nn[nH]n3)cc2)cc1NCc1ccccc1 [TRV 1126, N-benzyl-4-nitro-4′-(2H-tetrazol-5-yl)-[1,1′-biphenyl]-3-amine] | –
5 | 14.1 ± 3.07 | – | – | 1.5 | 27.5 | 52.5 | 1.9 | NS(=O)(=O)c1cccc(-c2ccc([N+](=O)[O-])c(NCc3ccccc3)c2)c1 [TRV 1122, 3′-(benzylamino)-4′-nitro-[1,1′-biphenyl]-3-sulfonamide] | –
6 | 1.34 ± 0.22 | – | – | 60 | 38.3 | 47.4 | 1.2 | O=[N+]([O-])c1ccc(-c2cccc(-c3nnn[nH]3)c2)cc1NCc1ccccc1 [TRV 1120, N-benzyl-4-nitro-3′-(1H-tetrazol-5-yl)-[1,1′-biphenyl]-3-amine] | inhibition of alpha-synuclein aggregation (alpha-synuclein): inhibit alpha-synuclein aggregation at 10 μM
